From paper PMC3085955 (Journal of medicinal chemistry, 2011)

Key:
T. gondii RHΔhxgprt = type: cell-based, Toxoplasma gondii; settings: for apicoplast replication: 1st infection cycle, T. gondii RHΔhxgprt
T. gondii YFP = assay: T. gondii replication assay in two successive infection cycles; type: cell-based, Toxoplasma gondii; settings: exposure to less than 1 μM in the first cycle
cultured mammalian cells = settings: cited from earlier work

| Molecule | apicoplast replication (T. gondii RHΔhxgprt) | reduction in parasite titers by the end of the second infection cycle (T. gondii YFP) | concentration showing toxicity against cultured mammalian cells (cultured mammalian cells) | ratio of plastid to nuclear DNA (T. gondii RHΔhxgprt; either infection cycle) |
| --- | --- | --- | --- | --- |
| CC[C@H]1OC(=O)[C@H](C)[C@@H](O[C@H]2C[C@@](C)(OC)[C@@H](O)[C@H](C)O2)[C@H](C)[C@@H](O[C@@H]2O[C@H](C)C[C@H](N(C)C)[C@H]2O)[C@](C)(O)C[C@@H](C)CN(C)[C@H](C)[C@@H](O)[C@]1(C)O [Compound 3, Azithromycin] | significantly impaired | > 2 fold | ~100 µM | – |
| CC[C@H]1OC(=O)[C@H](C)[C@@H](O[C@H]2C[C@@](C)(OC)[C@@H](O)[C@H](C)O2)[C@H](C)[C@@H](O[C@@H]2O[C@H](C)C[C@H](N(C)C)[C@H]2O)[C@](C)(O)C[C@@H](C)CN(Cc2ccccc2)[C@H](C)[C@@H](O)[C@]1(C)O [Compound 11, N-benzyl-azithromycin] | significantly impaired | – | – | – |
| CC[C@H]1OC(=O)[C@H](C)[C@@H](O[C@H]2C[C@@](C)(OC)[C@@H](O)[C@H](C)O2)[C@H](C)[C@@H](O[C@@H]2O[C@H](C)C[C@H](N(C)C)[C@H]2O)[C@](C)(O)C[C@@H](C)CN(CCCc2ccccc2)[C@H](C)[C@@H](O)[C@]1(C)O [Compound 30, N-phenylpropyl-azithromycin] | significantly impaired | – | – | – |
| CCc1nc(N)nc(N)c1-c1ccc(Cl)cc1 [Pyrimethamine] | – | – | – | did not affect |
| Spiramycin | significantly impaired | – | – | – |
